The target of this test is T1, full length AKT1 (Homo sapiens, UniProt P31749).
T1 construct: Full-length human AKT1 gene was amplified by PCR; His tag (from vector pFastbacHTb; purified on Nickel Sepharose) (N); made in house; host or cells: baculovirus; Sf9 / T. ni insect cells
Briefly: Full-length AKT enzyme assay (substrate phosphorylation, SPA). The test is classed as biochemical. The settings on record: in at least one experimental run; pIC50 = -log(IC50), IC50 in molar units; 4 uM ATP, 10 nM enzyme; read-out: pIC50 value against full length AKT1 (converted). The source says: Cloning of Full-Length Human (FL) AKT1:
Full-length human AKT1 gene was amplified by PCR from a plasmid containing myristylated-AKT1-ER (gift from Robert T. Abraham, Duke University under MTA, described in Klippel et al. in Molecular and Cellular Biology 1998 Volume 18 p. 5699) using the 5′ primer: SEQ. ID NO: 2 5′ […] 3′ and the 3′ primer: SEQ. ID NO: 3 […] 3′. The 5′ primer included a BamHI site and the 3′ primer included an XhoI site for cloning purposes. The resultant PCR product was subcloned in pcDNA3 as a BamHI/XhoI fragment. […]
Compounds of the present invention were tested for AKT 1, 2, and 3 protein serine kinase inhibitory activity in substrate phosphorylation assays. […] Substrate phosphorylation was detected by the following procedure.
Assays were performed in 384 well U-bottom white plates. […] The reaction was stopped by the addition of 50 ul SPA bead mix (Dulbecco's PBS without Mg^2+ and Ca^2+, 0.1% Triton X-100, 5 mM EDTA, 50 uM ATP, 2.5 mg/ml Streptavidin-coated SPA beads.) The plate was sealed, the beads were allowed to settle overnight, and then the plate was counted in a Packard Topcount Microplate Scintillation Counter (Packard Instrument Co., Meriden, Conn.). […]

T1 sequence (P31749 whole entry): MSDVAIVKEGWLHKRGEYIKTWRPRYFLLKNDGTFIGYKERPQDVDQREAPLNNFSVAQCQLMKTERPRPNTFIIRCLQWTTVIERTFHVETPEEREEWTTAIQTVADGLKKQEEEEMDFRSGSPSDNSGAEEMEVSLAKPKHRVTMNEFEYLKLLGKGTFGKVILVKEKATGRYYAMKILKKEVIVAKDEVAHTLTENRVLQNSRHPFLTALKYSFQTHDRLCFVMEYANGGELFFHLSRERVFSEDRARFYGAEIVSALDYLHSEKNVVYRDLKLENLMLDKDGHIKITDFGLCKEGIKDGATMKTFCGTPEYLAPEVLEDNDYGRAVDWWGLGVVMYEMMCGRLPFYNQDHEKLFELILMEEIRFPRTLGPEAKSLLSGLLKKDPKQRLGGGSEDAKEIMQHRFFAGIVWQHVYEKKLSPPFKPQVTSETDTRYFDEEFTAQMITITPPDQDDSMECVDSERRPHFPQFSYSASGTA

For `Cn1ncc(Cl)c1-c1ncc(C(=O)N[C@H](CN)Cc2cccc(F)c2)s1` [Example 2, N-{(1S)-2-amino-1-[(3-fluorophenyl)methyl]ethyl}-2-(4-chloro-1-methyl-1H-pyrazol-5-yl)-1,3-thiazole-5-carboxamide], the IC50 is 0.01 µM.

The values are drawn from patent publication US20110092423A1, “INHIBITORS OF Akt ACTIVITY” (GlaxoSmithKline, LLC, priority 2008, published 2011).
